The text below walks through data of ChEMBL document CHEMBL1141953, “Synthesis and structure-activity relationships of novel benzene sulfonamides with potent binding affinity for bovine carbonic anhydrase II” (Bioorg Med Chem Lett, 2005).

One may read the Ki as a measure of affinity in units of concentration, obtained from inhibition or displacement. A low value points to a stronger hold on the target.

The test has as its target Carbonic anhydrase 2 (Bos taurus, UniProt P00921). As to the kind of experiment: Displacement of DNSA from CAII in bovine erythrocytes.

Carbonic anhydrase 2, sequence (P00921 whole entry): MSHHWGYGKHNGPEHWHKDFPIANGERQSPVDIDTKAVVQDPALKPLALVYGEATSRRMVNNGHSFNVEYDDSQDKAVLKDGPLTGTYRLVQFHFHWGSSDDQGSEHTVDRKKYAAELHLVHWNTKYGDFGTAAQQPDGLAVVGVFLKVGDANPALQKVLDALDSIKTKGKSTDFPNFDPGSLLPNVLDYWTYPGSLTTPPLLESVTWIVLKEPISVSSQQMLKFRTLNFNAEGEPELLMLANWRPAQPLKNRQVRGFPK

Consider `NS(=O)(=O)c1ccc(C(=O)OC/C=C/CO)cc1`, for which the inhibition constant Ki stood at 5.3 nM.

In turn, `NS(=O)(=O)c1ccc(C(=O)OC/C=C\CO)cc1` gave an inhibition constant (Ki) of 9.1 nM.

Turning to `NS(=O)(=O)c1ccc(C(=O)OC/C=C\COC(=O)c2ccc(S(N)(=O)=O)cc2)cc1`, affinity was put at a Ki of 9.3 nM.

On to `NS(=O)(=O)c1ccc(C(=O)OC/C=C/COC(=O)c2ccc(S(N)(=O)=O)cc2)cc1`, for which affinity was put at a Ki of 4.9 nM.

For the compound `C=CCCCOC(=O)c1ccc(S(N)(=O)=O)cc1`, the inhibitory constant (Ki) was determined as 7.7 nM. This Ki is about 1.6-fold higher than that of the compound before.

As for `NS(=O)(=O)c1ccc(C(=O)OC/C=C/COC(=O)c2ccccc2)cc1`, the inhibition constant (Ki) amounted to 4.7 nM.

`C=CCOC(=O)c1ccc(S(N)(=O)=O)cc1`: the affinity, expressed as Ki, was 8.6 nM.
